experiment: gradient 5% acetonitrile 3 min, to 50% in 2 min, to 85% in 15 min, held 3 min, 100 µL/min; details: column: Zorbax Extend-C18 2.1 x 50 mm; eluents: water / acetonitrile, 0.1% formic acid
Outline: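 The mobile phases were water and acetonitrile, each with 0.1% formic acid, pumped at 100 μL/min through a Zorbax Extend-C18 column (2.1 × 50 mm, 1.8 μm). Pure standards were injected as mixtures of ~100 molecules and detected by a quadrupole time-of-flight mass spectrometer in positive and negative ionization mode. Retention time came from computationally picked adduct peaks, each inspected by hand.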

RP-LC retention time [s]	SMILES
860	CCN1C(=O)c2cccnc2Sc2cc(NC(=O)COc3ccccc3C)ccc21
701	Cc1ccccc1Nc1c(-c2ccccc2O)nc2c(C)cccn12
545	CC(C)NC(=O)c1cn2c(n1)CCCC2
945	Cc1cccc(NC(=O)CN2C(=O)C(C(=O)N3CCCC3)Sc3ccccc32)c1C (centres undefined)
1080	CCn1cc2c3c(cccc31)CN(C(=O)Nc1cc(C)ccc1OC)CC2
629	Cc1cc(C)n(-c2ccnc(N3CCC(C(=O)N4CCN(c5ccccn5)CC4)CC3)n2)n1
655	CCc1ccc(-c2cn3cc(C(=O)NC4CC4)ccc3n2)cc1
860	Cc1ccc(NC(=O)C(C)C2CCN(C(=O)Nc3ccccc3)CC2)cc1 (centres undefined)
961	Cc1noc(C)c1-c1ccc(S(=O)(=O)N2CCCCC2)cc1
1110	Cc1ccccc1-c1noc(Cn2c(=O)n(Cc3ccc4c(c3)OCO4)c(=O)c3sccc32)n1
712	O=C(c1ccc(OCC2CCCN(C(=O)c3ccco3)C2)cc1)N1CCOCC1 (centres undefined)
930	COc1ccc(N2CC(c3nc(-c4cccs4)no3)CC2=O)cc1Cl (centres undefined)
914	CC(C)n1cc(S(=O)(=O)NCc2ccccc2Cl)c2cccnc21
594	Cn1cc(S(=O)(=O)N2CCCC2)cc1C(=O)N1CCN(c2ccccn2)CC1
610	Cc1ccc(S(=O)(=O)N2CCN(C3CCN(Cc4cccnc4)C3=O)CC2)c(C)c1 (centres undefined)
1250	Cc1cc(C)cc(-c2nnc(Cc3nc(-c4cccc(C(F)(F)F)c4)no3)o2)c1
647	COc1cc(OC)c(NC(=O)Cc2nnc(-c3cnccn3)o2)cc1Cl
771	O=C(CCCCCCNC(=O)c1cnc(N(c2ccccc2)c2ccccc2)nc1)NO
953	O=S(=O)(Nc1ccc2c(c1)OCO2)c1ccc2ccccc2c1
1020	CC(C)(Oc1ccc(Cl)cc1)C(=O)N1CCN(C(=O)C2CC2c2cccs2)CC1 (centres undefined)
1030	O=C(C1CCN(S(=O)(=O)c2ccc(-c3noc(C4CCCC4)n3)cc2)CC1)N1CCCC1
637	Cc1cc(C(=O)Nc2ccc3c(c2)CCC(=O)N3)no1
753	CN(C)C(=O)c1ccc2c(c1)N(CC(=O)Nc1ccc(Cl)cc1)C(=O)CS2

RP-LC retention time [s]	SMILES
1090	CCCn1cc(C(=O)NCC(=O)OCC)c(S(=O)(=O)N2CCN(c3ccccc3Cl)CC2)n1
1180	Cc1ccc(-c2nc(-c3ccc(S(=O)(=O)N4CCC(C(=O)N5CCCC5)CC4)cc3)no2)cc1C
704	Cn1nccc1C(=O)N1CCC(NS(=O)(=O)c2ccc(Cl)cc2)CC1
856	CCC(C)C(NC(=O)c1ccc(C(C)C)cc1)C(=O)Nc1nc2ccccc2[nH]1 (centres undefined)
665	O=C(CCn1nnc2cc(S(=O)(=O)N3CCCCC3)ccc21)N1CCN(c2ccccn2)CC1
662	CCCNS(=O)(=O)c1cc(-c2[nH]ncc2C(=O)N2CCOCC2)oc1C
1030	COc1cc([N+](=O)[O-])ccc1NC(=O)c1cccc(Br)c1
663	CC(=O)N1CCC(CC(=O)N2CCCCCCN(C)C(=O)[C@@H]3CCC[C@@H]32)CC1
1040	CC(=O)OCC1OC(N2CCC(=O)NC2=O)C(OC(C)=O)C1OC(C)=O (centres undefined)
957	Cc1ccc(NC(=O)CSc2nnc3c4cc(-c5ccccc5)nn4ccn23)c(Cl)c1
604	CN(C)C(=O)c1[nH]c2ccccc2c1N1CCCC1=O
751	CC1(C(=O)NCc2ccccc2)Cc2ccccc2C(=O)N1C1CC1 (centres undefined)
1100	O=C(Nc1ccc(-c2nc(-c3ccc(F)cc3)no2)cc1)c1ccco1
718	O=[N+]([O-])/C=C/c1cc2ccccc2[nH]1
576	O=C(c1cccnc1)N1CCC(n2c(-c3ccsc3)nc3cccnc32)C1 (centres undefined)
706	CCN1C(=O)C2CC3(CCN(C(=O)Nc4ccc5c(c4)OCCO5)CC3)CN2C1=O (centres undefined)
996	CC(C)c1ccc(C(=O)NC(Cc2ccccc2)c2nnc(N3CCSCC3)o2)cc1 (centres undefined)
613	COCCC(=O)N1CCC(Oc2nccnc2N2CCOCC2)C1 (centres undefined)
571	O=C(NCc1cccs1)C1CCCN(Cc2nc(-c3cccnc3)no2)C1 (centres undefined)
1140	Ic1cccc(/C=N/Nc2nc(N3CCOCC3)nc(N(c3ccccc3)c3ccccc3)n2)c1
614	COc1cccc(NC(=O)N2CCN(c3nc4ccccc4n3Cc3ccccc3)CC2)c1
674	CN1CCN(c2nc(C3=C(c4c[nH]c5ccccc45)C(=O)NC3=O)c3ccccc3n2)CC1
568	O=C(c1ccc(Cl)cc1)N1CCc2nc[nH]c2C1

RP-LC retention time [s]	SMILES
869	Cc1ccc(NC(=O)N2CCC(C(C)C(=O)Nc3ccccc3F)CC2)cc1 (centres undefined)
958	CCC(C)CN(CC(=O)N1CCc2sccc2C1COc1ccccc1F)C(=O)COC (centres undefined)
1020	Cc1nc(-c2csc(S(=O)(=O)N3CCCC(C(=O)N4CCc5ccccc54)C3)c2)no1 (centres undefined)
882	CCn1c(=O)c(N2CCC(NC(=O)NCCc3ccccc3)CC2)nc2ccccc21
853	Cc1ccc(CNC(=O)CC2CCN(C(=O)c3[nH]c(C)c(C(=O)OC(C)C)c3C)CC2)cc1
903	C=CCNC(=O)c1cnn(-c2ccc(-c3nc(C(C)C)no3)cn2)c1C
650	CCCNC(=O)C1CCN(Cc2cn(C)c3ccc(Cl)cc23)CC1
863	Cc1oc(C2CCN(S(=O)(=O)c3ccc(Cl)cc3)CC2)nc1C(=O)N(C)C
641	CCCNC(=O)C1CCCN(c2nc3ncn(CC(=O)NC4CCCC4)c(=O)c3s2)C1 (centres undefined)
840	CC(Cc1cccs1)NS(=O)(=O)c1ccc2c(c1)OCCO2 (centres undefined)
633	CN(C(=O)Cn1c(=O)oc2ccccc21)C1CCc2nn(C)c(=O)n2CC1 (centres undefined)
732	CCNC(=O)C1(C)CC(c2ccccc2)=NO1 (centres undefined)
599	COc1cccc(-c2[nH]ncc2CN2C[C@@H]3CCN(S(C)(=O)=O)C[C@]3(CF)C2)c1
589	CCC(=O)N1CCc2c(C(=O)N3CCN(c4ccccn4)CC3)cccc21
599	Cc1cc(C)cc(C(=O)N2CCCC(C(=O)NCCN(C)C)C2)c1 (centres undefined)
871	CCN1C(=O)c2cccnc2Sc2cc(NC(=O)CCc3ccccc3OC)ccc21
1320	CCn1ccc2c(cc(C(=O)Nc3ccc(Cl)cc3C)n2C)c1=O
764	Cc1cc(C)n2nc(SCC(=O)Nc3ccc(C)c(C)c3)nc2n1
828	O=c1n(Cc2ccc3c(c2)OCO3)nc2c(S(=O)(=O)N3CCCCC3)cccn12
692	COc1ccc(CNC(=O)Cc2nnc(-c3ccsc3)o2)c(OC)c1
572	Cc1nnc(C2CC3(CCN(CCCO)CC3)CN2CCc2ccccc2)o1 (centres undefined)
1080	Clc1ccccc1-c1nnc(-c2ccccc2Cl)o1
570	O=C(CCc1c[nH]c2ccccc12)N1CCCN(C2CCN(CC3CC3)C2=O)CC1 (centres undefined)

RP-LC retention time [s]	SMILES
559	Cc1cc(C)c2c(N3CCSCC3)nc(C(=O)NCCN3CCCCC3)nc2n1
1090	N#Cc1ccc(NS(=O)(=O)c2cccc(-c3nc(-c4ccccc4)no3)c2)cc1
748	CCN1C(=O)COc2ccc(-c3csc(NC(=O)c4ccncc4)n3)cc21
948	COC(=O)c1ccccc1Nc1c(-c2ccc(OC)cc2)nc2cnccn12
754	O=C(Cn1nc2nc(Nc3ccc(F)cc3)ccn2c1=O)Nc1ccccc1F
1040	CCc1ccc(NC(=O)N2CCCC(C)(C(=O)NCc3ccc(C)cc3)C2)cc1 (centres undefined)
703	CCOC(=O)c1cnc2nc(C)ccc2c1Nc1ccc(F)c(F)c1
1030	CC1(C(=O)NCc2ccc(F)cc2)CCCN(C(=O)Nc2ccc(Br)cc2F)C1 (centres undefined)
984	CC(C)c1noc(-c2cc(=O)n(CC(=O)Nc3ccccc3F)c3ccccc23)n1
1130	Cc1cc(NS(=O)(=O)c2ccc(Nc3nc(-c4ccc(Cl)c(Cl)c4)cs3)cc2)no1
828	CC1(C(N)=O)CC(c2ccccc2)=NO1 (centres undefined)
990	O=C(CNS(=O)(=O)c1ccc(F)cc1)N1CCCC1c1nc(-c2ccc(Cl)cc2)no1 (centres undefined)
674	CCc1ccc(Nc2c(C(=O)N3CCCCC3C)cnc3nc(C)ccc23)cc1 (centres undefined)
1320	CCCN(CCC)c1nc2cc(C(=O)OC)ccc2c(=O)n1-c1ccccc1
905	Cn1cc2nc(SCC(=O)Nc3ccc(Br)cc3)n(CC3CC3)c(=O)c2n1
858	CC1=C(c2ccc(C)cc2)S(=O)(=O)N=C1N1CCCN(C(=O)C(C)(C)C)CC1
812	COC(=O)c1c(C)[nH]c(C(=O)N2CCC(CC(=O)NCc3ccc(OC(C)C)cc3)CC2)c1C
607	CCN(CC)CCCNC(=O)c1noc2c1CCCC2
842	CCCN(CC1CCOC1)C(=O)c1ccc(F)c(Cl)c1 (centres undefined)
570	Cc1noc(C)c1CN1CCC(NC(=O)c2cc(Cl)ccc2F)C1 (centres undefined)

Reference: the METLIN SMRT retention time set (Domingo-Almenara et al. 2019)
